Tests used:
[1] = target: T1, AbHBDH (Acinetobacter baumannii, UniProt A0A1E3M3N6); assay: X-ray crystal structure, […] Å; assay type: binding
T1 construct: gene AUO97_16470; homotetramer; landmarks: Gln95, Ser143, Asn145, Gly149, Phe150, Gly152, Lys153, Tyr156, Val189, Gln197
T1 sequence (A0A1E3M3N6 1-261): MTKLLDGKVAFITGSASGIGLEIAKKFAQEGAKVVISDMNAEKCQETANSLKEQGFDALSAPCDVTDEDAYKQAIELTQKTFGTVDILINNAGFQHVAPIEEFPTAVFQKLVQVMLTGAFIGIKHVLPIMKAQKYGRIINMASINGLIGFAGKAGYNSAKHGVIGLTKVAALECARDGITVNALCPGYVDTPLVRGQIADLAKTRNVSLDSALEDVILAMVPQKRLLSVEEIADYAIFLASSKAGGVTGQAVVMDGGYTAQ

[2] = target: T2, PaHBDH (Psychrobacter arcticus, UniProt Q4FRT2); assay: X-ray crystal structure, […] Å; assay type: binding; details: ternary dead-end complex with NAD+
T2 construct: gene Psyc_1428; homotetramer; landmarks: Gln99, Ser148, His150, Lys158, Tyr161, Val194, Gln202

[3] = target: T2, PaHBDH; assay: NADH fluorescence titration with enzyme; assay type: binding; details: 100 mM HEPES, pH 7.0, 25 °C; 3 μM NADH
[4] = target: T1, AbHBDH; assay: isothermal titration calorimetry; assay type: binding; details: 100 mM HEPES, pH 7.0, 25 °C; single-site model
[5] = target: T2, PaHBDH; assay: X-ray crystal structure, […] Å; assay type: binding
[6] = target: (R)-3-hydroxybutyrate dehydrogenase from Psychrobacter arcticus (Psychrobacter arcticus); assay: crystal structure; ternary complexes with NAD+ and acetoacetate or 3-oxovalerate; tetramers formed with crystallographic symmetry; crystals grown at room temperature
[7] = target: (R)-3-hydroxybutyrate dehydrogenase from Psychrobacter arcticus (Psychrobacter arcticus); assay: SEC; analytical gel filtration, Superdex 200 10/300 GL, room temperature, samples loaded at 1 mg/mL, 20 mM HEPES pH 8.0, MW standards
[8] = target: (R)-3-hydroxybutyrate dehydrogenase from Acinetobacter baumannii (Acinetobacter baumannii); assay: crystal structure; ternary complexes with NAD+ and acetoacetate or 3-oxovalerate; tetramers formed with crystallographic symmetry; crystals grown at room temperature
[9] = target: (R)-3-hydroxybutyrate dehydrogenase from Acinetobacter baumannii (Acinetobacter baumannii); assay: SEC; analytical gel filtration, Superdex 200 10/300 GL, room temperature, samples loaded at 1 mg/mL, 20 mM HEPES pH 8.0, MW standards
[10] = ternary dead-end complex with NAD+
[11] = ternary dead-end complex with acetoacetate (also with 3-oxovalerate)

T2 sequence (Q4FRT2 entry or part of it): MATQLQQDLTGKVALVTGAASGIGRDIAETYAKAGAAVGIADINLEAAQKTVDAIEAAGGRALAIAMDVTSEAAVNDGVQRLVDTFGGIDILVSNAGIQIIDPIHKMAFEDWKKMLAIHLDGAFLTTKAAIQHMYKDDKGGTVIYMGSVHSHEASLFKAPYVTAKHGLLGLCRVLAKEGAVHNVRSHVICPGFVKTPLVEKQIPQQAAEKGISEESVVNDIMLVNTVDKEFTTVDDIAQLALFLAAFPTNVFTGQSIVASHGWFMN

Question: With CCC(=O)CC(=O)O [3-oxovalerate] as the compound, how does the “X-ray crystal structure, 1.9 Å” value [1, 10] read?
Answer: Fobs – Fcalc maps show clear density for NAD^+ and either acetoacetate or 3-oxovalerate

Question: And the “X-ray crystal structure, 1.84 Å” value [2]?
Answer: Fobs – Fcalc maps show clear density for NAD^+ and either acetoacetate or 3-oxovalerate

Question: NC(=O)C1=CN([C@@H]2O[C@H](COP(=O)(O)OP(=O)(O)OC[C@H]3O[C@@H](n4cnc5c(N)ncnc54)[C@H](O)[C@@H]3O)[C@@H](O)[C@H]2O)C=CC1 [NADH] was tested. Which Kd [3] did it give?
Answer: 7 ± 2 µM

Question: What about the Kd [4] of the same compound?
Answer: 14 ± 8 µM

Question: How did the “X-ray crystal structure, 1.9 Å” value [1, 10] turn out when CC(=O)CC(=O)O [acetoacetate] was run?
Answer: crystal structures of the ternary complexes PaHBDH:NAD^+:AcAc, AbHBDH:NAD^+:AcAc

Question: And the “X-ray crystal structure, 1.3 Å” value ([5]; ternary dead-end complex with NAD+, two conformations of acetoacetate)?
Answer: crystal structures of the ternary complexes PaHBDH:NAD^+:AcAc, AbHBDH:NAD^+:AcAc

Question: What does the source list for NC(=O)c1ccc[n+]([C@@H]2O[C@H](COP(=O)(O)OP(=O)(O)OC[C@H]3O[C@@H](n4cnc5c(N)ncnc54)[C@H](O)[C@@H]3O)[C@@H](O)[C@H]2O)c1 [NAD^+]?
Answer: X-ray crystal structure, 1.9 Å [1, 11]: crystal structures of the ternary complexes PaHBDH:NAD^+:AcAc, AbHBDH:NAD^+:AcAc; X-ray crystal structure, 1.3 Å [5, 11]: crystal structures of the ternary complexes PaHBDH:NAD^+:AcAc, AbHBDH:NAD^+:AcAc

Question: What does the source list for “(R)-3-hydroxybutyrate dehydrogenase from Psychrobacter arcticus (enzyme)”?
Answer: stoichiometry N [6]: 4; stoichiometry N [7]: 4

Question: For “(R)-3-hydroxybutyrate dehydrogenase from Acinetobacter baumannii (enzyme)”, which stoichiometry N [8] is on record?
Answer: 4

Question: What about the stoichiometry N [9] of the same compound?
Answer: 4

— publication PMC7773212, “Dissecting the Mechanism of (R)-3-Hydroxybutyrate Dehydrogenase by Kinetic Isotope Effects, Protein Crystallography, and Computational Chemistry” (ACS Catalysis, 2020)
